Assay results from US8580829B2 (Boehringer Ingelheim International GmbH, priority 2010, dated 2013).
Where two headings read alike, the source gives them in different places.

Key:
[1] = molecular target: T1, recombinant human FLAP protein (Homo sapiens, UniProt P20292); assay: FLAP binding assay (Scintillation Proximity Assay, displacement of [125I]L-691,831); conditions: recombinant human FLAP membranes, [125I]L-691,831 probe; read-out: FLAP SPA IC50
T1 construct: made in house; host or cells: Sf9 insect cells (100,000 x g membrane fraction)
T1 sequence (P20292 1-161): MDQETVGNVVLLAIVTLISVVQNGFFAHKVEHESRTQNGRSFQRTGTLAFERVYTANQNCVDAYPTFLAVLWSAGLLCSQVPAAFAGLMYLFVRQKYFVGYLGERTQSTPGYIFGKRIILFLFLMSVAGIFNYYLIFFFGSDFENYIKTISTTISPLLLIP
In short: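 Membranes came from Sf9 insect cells expressing recombinant human FLAP, collected as the 100,000×g pellet in Tris pH 7.5/MgCl2/EDTA buffer. 5 μg membrane protein was coupled to WGA SPA beads for 1 h.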

[2] = tested on: synthesis of LTB4 in human whole blood; assay: human whole blood LTB4 production inhibition assay; format: cell-based; conditions: heparinized human whole blood, calcimycin 20 μM, read-out: hWB LTB4 IC50
In short: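 Steps: compound plus heparinized human whole blood, 15 min at 37° C; add calcimycin to 20 μM final; incubate another 30 min at 37° C; centrifuge at low speed and collect plasma; measure LTB4 with a homogeneous time-resolved fluorescence immunoassay.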

Row | IC50 [1] [nM] | IC50 ([2]; Homo sapiens) [nM] | IC50 [2] [nM] | Compound
1 | 5.8 | 120 |  | Nc1ncc(-c2ccc(C3(c4noc(-c5cnn(CC(=O)N6CCOCC6)c5)n4)CCC3)cc2)cn1 [Example 134, 2-[4-(3-{1-[4-(2-Amino-pyrimidin-5-yl)-phenyl]-cyclobutyl}-1,2,4-oxadiazol-5-yl)-pyrazol-1-yl]-1-morpholin-4-yl-ethanone]
2 | 8.1 | 930 |  | N#Cc1cccc(-c2nc(C3(c4ccc(-c5cnc(N)nc5)cc4)CCC3)no2)c1 [Example 41, 3-(3-{1-[4-(2-Amino-pyrimidin-5-yl)-phenyl]-cyclobutyl}-1,2,4-oxadiazol-5-yl)-benzonitrile]
3 | 15 | > 5000 |  | Nc1ncc(-c2ccc(C3(c4noc(-c5ccccc5)n4)CCOCC3)cc2)cn1 [Example 149, 5-{4-[4-(5-Phenyl-1,2,4-oxadiazol-3-yl)-tetrahydro-pyran-yl]-phenyl}-pyrimidin-2-ylamine]
4 | 13 | > 5000 |  | Nc1ncc(-c2ccc(C3(c4noc(-c5nc[nH]n5)n4)CCC3)cc2)cn1 [Example 156, 5-(4-{1-[5-(2H-1,2,4-Triazol-3-yl)-1,2,4-oxadiazol-3-yl]-cyclobutyl}-phenyl)-pyrimidin-2-ylamine]
5 | 6.6 | 860 |  | Cc1cc(-c2nc(C3(c4ccc(-c5cnc(N)nc5)cc4)CCC3)no2)n(C)n1 [Example 161, 5-(4-{1-[5-(2,5-Dimethyl-2H-pyrazol-3-yl)-1,2,4-oxadiazol-3-yl]-cyclobutyl}-phenyl)-pyrimidin-2-ylamine]
6 | 4.9 | 150 |  | Cn1ccc(-c2nc(C3(c4ccc(-c5cnc(N)nc5)cc4)CCC3)no2)n1 [Example 92, 5-(4-{1-[5-(1-Methyl-1I-pyrazol-3-yl)-1,2,4-oxadiazol-3-yl]-cyclobutyl}-phenyl)-pyrimidin-2-ylamine]
7 | 1.5 | 67 |  | CC(O)CNc1cnc(-c2nc(C3(c4ccc(-c5cnc(N)nc5)cc4)CCC3)no2)cn1 (stereo not shown) [Example 200, 1-[5-(3-{1-[4-(2-Amino-pyrimidin-5-yl)-phenyl]-cyclobutyl}-1,2,4-oxadiazol-5-yl)-pyrazin-2-ylamino]-propan-2-ol]
8 | 4.3 | 780 |  | Nc1ncc(-c2ccc(C3(c4noc(-c5cccc(F)c5)n4)CCC3)cc2)cn1 [Example 52, 5-(4-{1-[5-(3-Fluoro-phenyl)-1,2,4-oxadiazol-3-yl]-cyclobutyl}-phenyl)-pyrimidin-2-ylamine]
9 | 16 | 210 |  | CO[C@H]1CCN(C(=O)Cn2cc(-c3nc(C4(c5ccc(-c6cnc(N)nc6)cc5)CCC4)no3)cn2)C1 [Example 259, 2-[4-(3-{1-[4-(2-Amino-pyrimidin-5-yl)-phenyl]-cyclobutyl}-[1,2,4]oxadiazol-5-yl)-pyrazol-1-yl]-1-((S)-3-methoxy-pyrrolidin-1-yl)-ethanone]
10 | 6.4 | 1000 |  | CCn1nc(C)cc1-c1nc(C2(c3ccc(-c4cnc(N)nc4)cc3)CCC2)no1 [Example 162, 5-(4-{1-[5-(2-Ethyl-5-methyl-2H-pyrazol-3-yl)-1,2,4-oxadiazol-3-yl]-cyclobutyl}-phenyl)-pyrimidin-2-ylamine]
11 | 35 | 230 |  | Nc1ncc(-c2ccc(C3(c4noc(N5CC[C@@H](O)C5)n4)CCC3)cc2)cn1 [Example 290, (R)-1-(3-{1-[4-(2-Amino-pyrimidin-5-yl)-phenyl]-cyclobutyl}-[1,2,4]oxadiazol-5-yl)-pyrrolidin-3-ol]
12 | 0.88 | 53 |  | CCNc1ccc(-c2nc(C3(c4ccc(-c5cnc(N)nc5)cc4)CCC3)no2)cn1 [Example 183, 5-(4-{1-[5-(6-Ethylamino-pyridin-3-yl)-1,2,4-oxadiazol-3-yl]-cyclobutyl}-phenyl)-pyrimidin-2-ylamine]
13 | 6.1 | 560 |  | CN(CCO)c1cc(-c2nc(C3(c4ccc(-c5cnc(N)nc5)cc4)CCC3)no2)ccn1 [Example 94, 2-{[4-(3-{1-[4-(2-amino-pyrimidin-5-yl)-phenyl]-cyclobutyl}-1,2,4-oxadiazol-5-yl)-pyridin-2-yl]-methyl-amino}-ethanol]
14 | 1.8 | 26 |  | Nc1ncc(-c2ccc(C3(c4noc(-c5cnn(CCN6CCOCC6)c5)n4)CCC3)cc2)cn1 [Example 232, 5-[4-(1-{5-[1-(2-Morpholin-4-yl-ethyl)-1H-pyrazol-4-yl]-[1,2,4]oxadiazol-3-yl}-cyclobutyl)-phenyl]-pyrimidin-2-ylamine]
15 | 3.1 | 99 |  | CC(CO)n1cc(-c2nc(C3(c4ccc(-c5cnc(N)nc5)cc4)CCC3)no2)cn1 (stereo not shown) [Example 82, 2-[4-(3-{1-[4-(2-Amino-pyrimidin-5-yl)-phenyl]-cyclobutyl}-1,2,4-oxadiazol-5-yl)-pyrazol-1-yl]-propan-1-ol]
16 | 0.89 | > 5000 |  | CS(=O)(=O)CCNC(=O)Cn1cc(-c2nc(C3(c4ccc(-c5cnc(N)nc5)cc4)CCC3)no2)cn1 [Example 225, 2-[4-(3-{1-[4-(2-Amino-pyrimidin-5-yl)-phenyl]-cyclobutyl}-[1,2,4]oxadiazol-5-yl)-pyrazol-1-yl]-N-(2-methanesulfonyl-ethyl)-acetamide]
17 | 5.7 | 360 |  | Nc1ncc(-c2ccc(C3(c4noc(-c5cnccn5)n4)CCC3)cc2)cn1 [Example 158, 5-{4-[1-(5-Pyrazin-2-yl-1,2,4-oxadiazol-3-yl)-cyclobutyl]-phenyl}-pyrimidin-2-ylamine]
18 | 22 | 220 |  | CO[C@@H]1CCN(C(=O)Cn2cc(-c3nc(C4(c5ccc(-c6cnc(N)nc6)cc5)CCC4)no3)cn2)C1 [Example 256, 2-[4-(3-{1-[4-(2-Amino-pyrimidin-5-yl)-phenyl]-cyclobutyl}-[1,2,4]oxadiazol-5-yl)-pyrazol-1-yl]-1-((R)-3-methoxy-pyrrolidin-1-yl)-ethanone]
19 | 5.3 | 34 |  | Nc1ccc(-c2ccc(C3(c4noc(-c5cnn(C6COC6)c5)n4)CCC3)cc2)cn1 [Example 252, 5-(4-{1-[5-(1-Oxetan-3-yl-1H-pyrazol-4-yl)-[1,2,4]oxadiazol-3-yl]-cyclobutyl}-phenyl)-pyridin-2-ylamine]
20 | 12 | 1400 |  | Nc1ncc(-c2ccc(C3(c4noc(-c5cccnc5N5CCOCC5)n4)CCC3)cc2)cn1 [Example 179, 5-(4-{1-[5-(2-Morpholin-4-yl-pyridin-3-yl)-1,2,4-oxadiazol-3-yl]-cyclobutyl}-phenyl)-pyrimidin-2-ylamine]
21 | 1.5 | 48 |  | CC(C)Nc1cnc(-c2nc(C3(c4ccc(-c5cnc(N)nc5)cc4)CCC3)no2)cn1 [Example 197, 5-(4-{1-[5-(5-Isopropylamino-pyrazin-2-yl)-1,2,4-oxadiazol-3-yl]-cyclobutyl}-phenyl)-pyrimidin-2-ylamine]
22 | 14 | 820 |  | Nc1ncc(-c2ccc(C3(c4noc(-c5ccncn5)n4)CCC3)cc2)cn1 [Example 171, 5-{4-[1-(5-Pyrimidin-4-yl-1,2,4-oxadiazol-3-yl)-cyclobutyl]-phenyl}-pyrimidin-2-ylamine]
23 | 7.3 | 230 |  | Cn1cc(-c2nc(C3(c4ccc(-c5cnc(N)nc5)cc4)CCC3)no2)cnc1=O [Example 185, 5-(3-{1-[4-(2-Amino-pyrimidin-5-yl)-phenyl]-cyclobutyl}-1,2,4-oxadiazol-5-yl)-1-methyl-1H-pyrimidin-2-one]
24 | 6.7 | 180 |  | CN(C)C(=O)C(C)(C)n1cc(-c2nc(C3(c4ccc(-c5cnc(N)nc5)cc4)CCC3)no2)cn1 [Example 128, 2-[4-(3-{1-[4-(2-amino-pyrimidin-5-yl)-phenyl]-cyclobutyl}-1,2,4-oxadiazol-5-yl)-pyrazol-1-yl]-N,N-dimethyl-isobutyramide]
25 | 1.3 | 110 |  | CS(=O)(=O)CCNc1ccc(-c2nc(C3(c4ccc(-c5cnc(N)nc5)cc4)CCC3)no2)cn1 [Example 108, 5-[4-(1-{5-[6-(2-Methanesulfonyl-ethylamino)-pyridin-3-yl]-1,2,4-oxadiazol-3-yl}-cyclobutyl)-phenyl]-pyrimidin-2-ylamine]
26 | 3.1 | 75 |  | Nc1ncc(-c2ccc(C3(c4noc(-c5ccc(O)cc5)n4)CCC3)cc2)cn1 [Example 44, 4-(3-{1-[4-(2-Amino-pyrimidin-5-yl)-phenyl]-cyclobutyl}-1,2,4-oxadiazol-5-yl)-phenol]
27 | 4.5 |  | 75 | CCNC(=O)Cn1cc(-c2nc(C3(c4ccc(-c5cnc(N)nc5)cc4)CCC3)no2)cn1 [Example 204, 2-[4-(3-{1-[4-(2-Amino-pyrimidin-5-yl)-phenyl]-cyclobutyl}-[1,2,4]oxadiazol-5-yl)-pyrazol-1-yl]-N-ethyl-acetamide]
28 | 5.5 | 230 |  | COc1ccncc1-c1nc(C2(c3ccc(-c4cnc(N)nc4)cc3)CCC2)no1 [Example 168, 5-(4-{1-[5-(4-Methoxy-pyridin-3-yl)-1,2,4-oxadiazol-3-yl]-cyclobutyl}-phenyl)-pyrimidin-2-ylamine]
29 | 2.6 | 160 |  | Nc1ncc(-c2ccc(C3(c4noc(-c5ccc(C(=O)NCCO)nc5)n4)CCC3)cc2)cn1 [Example 77, 5-(3-{1-[4-(2-Amino-pyrimidin-5-yl)-phenyl]-cyclobutyl}-1,2,4-oxadiazol-5-yl)-pyridine-2-carboxylic acid (2-hydroxy-ethyl)-amide]
